This is an account of results in EP4813381A1, “PHARMACEUTICAL USE OF GUAIANE SESQUITERPENE DERIVATIVE” (Nanjing University Of Chinese Medicine, priority 2023, dated 2025).

One test relates to diabetic nephropathy. As to the kind of experiment: Diabetic nephropathy (STZ + HFD, DKD) mice: Scr and BUN. The settings on record: serum, 8 weeks. It is filed as in vivo, C57/BL6J mice. How it is done:
(§1) Production license number: SCXK(Su)2023-0009. […] Animals were acclimated for 7 days before use in experiments.
(§2) Administer streptozotocin (STZ, 50 mg/kg) via intraperitoneal injection for 5 consecutive days. After 72 hours, select mice with fasting blood glucose levels exceeding 16.7 mmol/L as model mice. […] Model mice were fed a high-fat diet (HFD) providing 60% of energy from fat for 8 weeks. After 8 weeks, gavage administration commenced.
(§3) Specimen Collection: One hour after the last drug administration, enucleate the eyeball to collect blood. Allow blood to stand at room temperature for 2 hours, then centrifuge at 3000 rpm for 20 minutes. Aspirate the serum, aliquot it, and store at -70 °C for future use. After blood collection, euthanize the mice by cervical dislocation. Open the abdominal cavity, remove the kidneys, and dissect away the perirenal fat and capsule. Store the tissue at -70 °C for future use.
Serum Creatinine (Scr) and Blood Urea Nitrogen (BUN) Assay: For each sample, 10 µL of serum was used for creatinine and urea level detection. Samples were added sequentially strictly following the kit instructions. After incubation at 37 °C, absorbance values were measured using an enzyme-linked immunosorbent assay (ELISA) reader. The concentration levels of each indicator were calculated based on the standard curve.

The test system of test [1] is renal injury markers (Kim-1, Ngal), inflammatory factors (MCP-1, TNF-α). Kind of test: Diabetic nephropathy (DKD) mice: Q-PCR of kidney tissue. It is filed as in vivo, C57/BL6J mice. The settings on record: kidney mRNA, gavage 10 mg/kg. How it is done: as §1, §2, §3
Additional primer information is as follows: Table 24. Additional Information on Q-PCR Primers

The subject of the next test is Hepa1-6 cells. It counts as in vivo. As to conditions: Hepa1-6 xenograft, male C57BL/6 mice, compound 20 alone, dose 1 (head µmol/kg/day; text 1 mg/kg/day), intraperitoneal daily, 2 weeks. How it is done: Hepa1-6 cells were cultured and expanded in vitro. An appropriate amount of cells in the logarithmic growth phase was resuspended in a mixture of serum-free DMEM medium and Matrigel (1:1). Under sterile conditions, prepare a cell suspension at 2.5 × 10^6 cells/100 µL. Using a syringe, inject 100 µL of the cell suspension subcutaneously into the left forelimb axilla of male C57BL/6 mice. […]. […] During the treatment period, mouse body weight and tumor diameter were measured daily. At the end of the experiment, mice were euthanized by cervical dislocation, and tumors were removed and weighed. Tumor volume (TV) was calculated using the formula: TV = 1/2 × a × b^2, where a represents the longest diameter of the tumor and b represents the shortest diameter.

Test [2] deals with MC903-induced atopic dermatitis (AD). As to the kind of experiment: MC903-induced AD model on the dorsum of mice, Compound 1 ointment: skin thickness and dermatitis score. It is filed as in vivo. Details: Skin thickness: unit not given here. As to conditions: for inhibition rate (dorsal skin thickness): final day; for Dermatitis Score: back, score max 12; for Skin thickness: dorsal region, AD mice. How it is done:
Weigh white petrolatum, light liquid paraffin, glyceryl monostearate, ethylparaben, and cetyl alcohol. Heat to 65 °C while stirring until dissolved. Slowly add the dissolved active pharmaceutical ingredient (API) while continuing to stir until uniformly mixed. Set aside. • (2) Aqueous Phase Preparation: […] Slowly add the aqueous phase to the oil phase while maintaining 65 °C, homogenize, and continue stirring for 30 min; • (4) Cooling: Stop heating, continue stirring, gradually reduce to room temperature, cool to form an ointment, and fill containers. […] Dissolve these substances in a small amount of propylene glycol, then place the resulting solution into the aforementioned pre-cooled blank ointment base. […] Establishment of the AD Model on the Dorsum of Mice and Drug Administration: […] Except for the Normal group, all other groups underwent AD modeling: 48 hours prior to the experiment, hair on the dorsal neck region was meticulously removed using clippers and depilatory cream. […] Model and control group mice received daily application of blank ointment. Twenty-four hours after completing the 14-day modeling period, photographs of skin lesions were taken, and skin lesion and blood samples were collected. Skin Lesion Severity Score: […] Statistical analysis was performed on the data.

Test [3] deals with Human keratinocytes (Hacat). Kind of test: Hyaluronic acid and hyaluronidase levels in UVB-irradiated human keratinocytes. As to conditions: UVB 90 mJ/cm^2, 24 h. It is filed as cell-based. As for the experimental part: Human keratinocytes (Hacat) were cultured routinely in DMEM medium containing 10% FBS within a 5% CO2 incubator.
The subject of a further test is CCR2 mRNA. As to the kind of experiment: CCR2 mRNA level in MDSCs (PCR). It is filed as cell-based, mice. The settings on record: CCR2 mRNA levels in MDSCs, 2 h. A digest of the protocol: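 Mouse tibial bone marrow cells differentiated to MDSCs in RPMI 1640 with GM-CSF (10 ng/mL) plus IL-4 (10 ng/mL), seeded at 1 × 10^6 cells/mL. After treatment, RNA extracted, reverse transcribed, and CCR2 transcript measured by PCR.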

As for `CN(C)C[C@@H]1C(=O)O[C@H]2[C@H]1CC[C@@]1(C)C[C@]13CC[C@@](C)(O)[C@H]23` [compound 20], in the test with diabetic nephropathy (gavage 1 mg/kg), the BUN is 37.01±2.50 and the Scr turned out to be 17.72±1.658. Further, in the test on diabetic nephropathy (gavage 10 mg/kg), the BUN worked out at 19.71±1.22 and the Scr is 12.96±0.78. For the same molecule, in test [1], the Kim-1 turned out to be 0.64±0.10, the Mcp-1 came to 1.40±0.22, the Ngal is 0.96±0.13 and the Tnf-α turned out to be 0.96±0.13. In the test with Hepa1-6 cells, the “Tumor Inhibition Rate (%)” value came to 72.37% and the “Tumor weight” value turned out to be 0.12 ± 0.09 g.

For `C=C1C(=O)O[C@@H]2[C@@H]3[C@]4(CC[C@@]3(C)O)C[C@]4(C)CC[C@@H]12` [compound 1], the “inhibition rate (dorsal skin thickness)” value in test [2] (0.01% Compound 1 ointment) is 66%; in test [2] (0.1% Compound 1 ointment) it was 72%; in test [2] (1% Compound 1 ointment) it was 83%. Besides, the entries for the “Dermatitis Score” value in test [2] (0.01% ointment for 7 days), in test [2] (0.1% ointment for 7 days) and in test [2] (1% ointment for 7 days) were 3.67±0.33, 2.50±0.22 and 2.17±0.17, respectively. In addition, the Skin thickness in test [2] (0.01% ointment) came to 36.06±0.91; in test [2] (0.1% ointment), 33.11±0.31; in test [2] (1% ointment) it was 29.56±0.25. The Hyaluronic acid was determined as 8.73 ± 1.62 ng/mL in test [3] (0.01 µM), 14.17 ± 1.30 ng/mL in test [3] (0.1 µM), 19.51 ± 1.87 ng/mL in test [3] (1 µM) and 24.82 ± 1.13 ng/mL in test [3] (10 µM). Besides, the Hyaluronidase was found to be 124.41 ± 16.49 ng/mL in test [3] (0.01 µM), 88.07 ± 10.17 ng/mL in test [3] (0.1 µM), 56.03 ± 5.53 ng/mL in test [3] (1 µM) and 37.73 ± 11.49 ng/mL in test [3] (10 µM). For the same molecule, the “CCR2 mRNA suppression rate in MDSCs (%)” value was determined as 35.2% with CCR2 mRNA (1 µM) and 76.5% in the test with CCR2 mRNA (10 µM).
